Drawing on the supplement of paper PMC10307832, this text covers relative viability for six cell lines.

Holding throughout (experiment): relative viability (nuclei count vs DMSO), 5 days (fraction); higher = more cells survive
Compound in the assay “Neratinib + Luminespib”: CCOc1cc2ncc(C#N)c(Nc3ccc(OCc4ccccn4)c(Cl)c3)c2cc1NC(=O)/C=C/CN(C)C [Neratinib] + CCNC(=O)c1noc(-c2cc(C(C)C)c(O)cc2O)c1-c1ccc(CN2CCOCC2)cc1 [Luminespib] (partner 0.01 µM)
The essentials: (§1)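 Five library-drug doses in √10 steps were combined with a fixed anchor-drug dose, or a single drug was given alone, by pin tool to lung cancer cell lines in 1536-well plates the day after seeding. Nuclei were stained and counted after 5 days. Relative viability is the nuclei count in treated wells over that in vehicle wells, taken as the median of duplicate plates.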

Compound in the assay “Neratinib + OSI-027”: CCOc1cc2ncc(C#N)c(Nc3ccc(OCc4ccccn4)c(Cl)c3)c2cc1NC(=O)/C=C/CN(C)C [Neratinib] + COc1cccc2cc(-c3nc([C@H]4CC[C@H](C(=O)O)CC4)n4ncnc(N)c34)[nH]c12 [OSI-027] (partner 0.5 µM)
Summed up: as §1

Compound in the assay “Neratinib + Lapatinib”: CCOc1cc2ncc(C#N)c(Nc3ccc(OCc4ccccn4)c(Cl)c3)c2cc1NC(=O)/C=C/CN(C)C [Neratinib] + CS(=O)(=O)CCNCc1ccc(-c2ccc3ncnc(Nc4ccc(OCc5cccc(F)c5)c(Cl)c4)c3c2)o1 [Lapatinib] (partner 2 µM)
The essentials: as §1

Compound in the assay “Neratinib + Linsitinib”: CCOc1cc2ncc(C#N)c(Nc3ccc(OCc4ccccn4)c(Cl)c3)c2cc1NC(=O)/C=C/CN(C)C [Neratinib] + C[C@]1(O)C[C@@H](c2nc(-c3ccc4ccc(-c5ccccc5)nc4c3)c3c(N)nccn32)C1 [Linsitinib] (partner 1 µM)
Summed up: as §1

Take NCI-H2085: the relative viability was 0.4 with Neratinib + Luminespib (first compound 0.01 µM); 0.455 with Neratinib + Luminespib (first compound 0.03162 µM); 0.353 with Neratinib + Luminespib (first compound 0.1 µM); 0.3 with Neratinib + Luminespib (first compound 0.3162 µM); 0.294 with Neratinib + Luminespib (first compound 1 µM); 0.736 in the assay with Neratinib + OSI-027 (first compound 0.01 µM). Besides, the relative viability in the assay with Neratinib + OSI-027 (first compound 0.03162 µM) stood at 0.882; with Neratinib + OSI-027 (first compound 0.1 µM), 0.647; in the assay with Neratinib + OSI-027 (first compound 0.3162 µM) it was 0.398; in the assay with Neratinib + OSI-027 (first compound 1 µM), 0.266; with Neratinib + Lapatinib (first compound 0.01 µM) it was 0.76; with Neratinib + Lapatinib (first compound 0.03162 µM), 0.887. For the same cell line, the relative viability in the assay with Neratinib + Lapatinib (first compound 0.1 µM) stood at 0.767; in the assay with Neratinib + Lapatinib (first compound 0.3162 µM), 0.71; with Neratinib + Lapatinib (first compound 1 µM) it was 0.699; in the assay with Neratinib + Linsitinib (first compound 0.01 µM), 0.858; in the assay with Neratinib + Linsitinib (first compound 0.03162 µM), 1.11; in the assay with Neratinib + Linsitinib (first compound 0.1 µM), 0.81. The values for the relative viability with Neratinib + Linsitinib (first compound 0.3162 µM) and with Neratinib + Linsitinib (first compound 1 µM) were 0.668 and 0.474, respectively.
For the cell line COR-L 105, the relative viability with Neratinib + Luminespib (first compound 0.01 µM) worked out at 0.862; with Neratinib + Luminespib (first compound 0.03162 µM) it was 0.669; with Neratinib + Luminespib (first compound 0.1 µM), 0.53; in the assay with Neratinib + Luminespib (first compound 0.3162 µM) it was 0.35; with Neratinib + Luminespib (first compound 1 µM), 0.203; with Neratinib + OSI-027 (first compound 0.01 µM) it was 0.863. Also, the relative viability with Neratinib + OSI-027 (first compound 0.03162 µM) was 0.54; with Neratinib + OSI-027 (first compound 0.1 µM) it was 0.36; with Neratinib + OSI-027 (first compound 0.3162 µM), 0.226; with Neratinib + OSI-027 (first compound 1 µM) it was 0.283; in the assay with Neratinib + Lapatinib (first compound 0.01 µM), 0.36; with Neratinib + Lapatinib (first compound 0.03162 µM), 0.37. The relative viability with Neratinib + Lapatinib (first compound 0.1 µM) was 0.331; in the assay with Neratinib + Lapatinib (first compound 0.3162 µM) it was 0.377; with Neratinib + Lapatinib (first compound 1 µM), 0.32; in the assay with Neratinib + Linsitinib (first compound 0.01 µM), 0.989; in the assay with Neratinib + Linsitinib (first compound 0.03162 µM), 1.07; with Neratinib + Linsitinib (first compound 0.1 µM), 0.754. Besides, the relative viability in the assay with Neratinib + Linsitinib (first compound 0.3162 µM) worked out at 0.298; in the assay with Neratinib + Linsitinib (first compound 1 µM) it was 0.241.
In the case of NCI-H1734, the relative viability in the assay with Neratinib + Luminespib (first compound 0.01 µM) is 0.202; in the assay with Neratinib + Luminespib (first compound 0.03162 µM), 0.206; with Neratinib + Luminespib (first compound 0.1 µM), 0.169; with Neratinib + Luminespib (first compound 0.3162 µM), 0.204; in the assay with Neratinib + Luminespib (first compound 1 µM) it was 0.153; with Neratinib + OSI-027 (first compound 0.01 µM), 0.659. The relative viability with Neratinib + OSI-027 (first compound 0.03162 µM) stood at 0.638; with Neratinib + OSI-027 (first compound 0.3162 µM) it was 0.552; in the assay with Neratinib + OSI-027 (first compound 1 µM) it was 0.331; with Neratinib + Lapatinib (first compound 0.01 µM) it was 1.28; with Neratinib + Lapatinib (first compound 0.03162 µM), 1.1; in the assay with Neratinib + Lapatinib (first compound 0.1 µM), 0.909. Moreover, the relative viability with Neratinib + Lapatinib (first compound 0.3162 µM) turned out to be 1.06; in the assay with Neratinib + Lapatinib (first compound 1 µM), 0.829; with Neratinib + Linsitinib (first compound 0.01 µM), 0.997; with Neratinib + Linsitinib (first compound 0.03162 µM) it was 0.925; in the assay with Neratinib + Linsitinib (first compound 0.1 µM), 0.814; in the assay with Neratinib + Linsitinib (first compound 0.3162 µM), 0.754. Further, the relative viability with Neratinib + Linsitinib (first compound 1 µM) came to 0.646.
As for NCI-H322M, the relative viability was 0.852 in the assay with Neratinib + Luminespib (first compound 0.01 µM); 0.796 in the assay with Neratinib + Luminespib (first compound 0.03162 µM); 0.701 with Neratinib + Luminespib (first compound 0.1 µM); 0.392 with Neratinib + Luminespib (first compound 0.3162 µM); 0.352 with Neratinib + Luminespib (first compound 1 µM); 0.515 with Neratinib + OSI-027 (first compound 0.01 µM). Also, the relative viability with Neratinib + OSI-027 (first compound 0.03162 µM) turned out to be 0.592; with Neratinib + OSI-027 (first compound 0.1 µM) it was 0.519; in the assay with Neratinib + OSI-027 (first compound 0.3162 µM), 0.365; with Neratinib + OSI-027 (first compound 1 µM), 0.307; with Neratinib + Lapatinib (first compound 0.01 µM) it was 0.587; with Neratinib + Lapatinib (first compound 0.03162 µM), 0.569. For the same cell line, the relative viability with Neratinib + Lapatinib (first compound 0.1 µM) was found to be 0.522; in the assay with Neratinib + Lapatinib (first compound 0.3162 µM), 0.567; in the assay with Neratinib + Lapatinib (first compound 1 µM), 0.449; in the assay with Neratinib + Linsitinib (first compound 0.01 µM), 0.752; with Neratinib + Linsitinib (first compound 0.03162 µM), 0.929; in the assay with Neratinib + Linsitinib (first compound 0.1 µM), 0.793. Moreover, the relative viability with Neratinib + Linsitinib (first compound 0.3162 µM) came out at 0.486; with Neratinib + Linsitinib (first compound 1 µM), 0.337.
For the cell line CAL-12T, the relative viability in the assay with Neratinib + Luminespib (first compound 0.01 µM) worked out at 0.445; with Neratinib + Luminespib (first compound 0.03162 µM), 0.393; with Neratinib + Luminespib (first compound 0.1 µM) it was 0.291; in the assay with Neratinib + Luminespib (first compound 0.3162 µM), 0.104; in the assay with Neratinib + Luminespib (first compound 1 µM), 0.123; with Neratinib + OSI-027 (first compound 0.01 µM), 0.614. Besides, the relative viability is 0.719 with Neratinib + OSI-027 (first compound 0.03162 µM); 0.345 with Neratinib + OSI-027 (first compound 0.1 µM); 0.237 with Neratinib + OSI-027 (first compound 0.3162 µM); 0.197 with Neratinib + OSI-027 (first compound 1 µM); 0.725 with Neratinib + Lapatinib (first compound 0.01 µM); 0.702 with Neratinib + Lapatinib (first compound 0.03162 µM). Also, the relative viability worked out at 0.529 with Neratinib + Lapatinib (first compound 0.1 µM); 0.635 with Neratinib + Lapatinib (first compound 0.3162 µM); 0.295 with Neratinib + Lapatinib (first compound 1 µM); 0.771 with Neratinib + Linsitinib (first compound 0.01 µM); 1.09 in the assay with Neratinib + Linsitinib (first compound 0.03162 µM); 0.703 with Neratinib + Linsitinib (first compound 0.1 µM). For the same cell line, the relative viability with Neratinib + Linsitinib (first compound 0.3162 µM) was 0.455; with Neratinib + Linsitinib (first compound 1 µM) it was 0.343.
Consider NCI-H2087, for which the relative viability with Neratinib + Luminespib (first compound 0.01 µM) is 0.16; with Neratinib + Luminespib (first compound 0.03162 µM), 0.172; with Neratinib + Luminespib (first compound 0.1 µM) it was 0.151; with Neratinib + Luminespib (first compound 0.3162 µM), 0.14; with Neratinib + Luminespib (first compound 1 µM), 0.148; with Neratinib + OSI-027 (first compound 0.03162 µM) it was 0.634. Further, the relative viability came out at 0.471 with Neratinib + OSI-027 (first compound 0.1 µM); 0.335 in the assay with Neratinib + OSI-027 (first compound 0.3162 µM); 0.267 in the assay with Neratinib + OSI-027 (first compound 1 µM); 1.02 with Neratinib + Lapatinib (first compound 0.01 µM); 0.995 in the assay with Neratinib + Lapatinib (first compound 0.03162 µM); 0.989 in the assay with Neratinib + Lapatinib (first compound 0.3162 µM). Moreover, the relative viability with Neratinib + Lapatinib (first compound 1 µM) amounted to 0.894; in the assay with Neratinib + Linsitinib (first compound 0.01 µM), 0.951; in the assay with Neratinib + Linsitinib (first compound 0.03162 µM) it was 0.949; in the assay with Neratinib + Linsitinib (first compound 0.3162 µM), 0.765; with Neratinib + Linsitinib (first compound 1 µM), 0.615.
